Measurements taken from US10906873B2, “Substituted cyclic amides as herbicides” (FMC Corporation, priority 2015, dated 2021).

Experiments:
Format in all cases: in vivo
kochia (Kochia scoparia) [1] = experiment: Test A preemergence, kochia; conditions: 0 to 100 scale
Excerpt: (§1) Seeds of plant species selected from barnyardgrass (Echinochloa crus-galli), crabgrass (large crabgrass, Digitaria sanguinalis), kochia (Kochia scoparia), ragweed (common ragweed, Ambrosia elatior), morningglory (Ipomoea spp.), velvetleaf (Abutilon theophrasti), ryegrass, It. (Italian ryegrass, Lolium multiflorum), foxtail, giant (giant foxtail, Setaria faberii), wheat (Triticum aestivum), corn (Zea mays), and pigweed (Amaranthus retroflexus), were planted into a blend of loam soil and sand and treated preemergence with a directed soil spray using test chemicals formulated in a non-phytotoxic solvent mixture which included a surfactant. At the same time, plants selected from these crop and weed species and also blackgrass (Alopecurus myosuroides), and galium (catchweed bedstraw, Galium aparine), were planted in pots containing the same blend of loam soil and sand and treated with postemergence applications of test chemicals formulated in the same manner. Plants ranged in height from 2 to 10 cm and were in the one- to two-leaf stage for the postemergence treatment. Treated plants and untreated controls were maintained in a greenhouse for approximately 10 d, after which time all treated plants were compared to untreated controls and visually evaluated for injury. Plant response ratings, summarized in Table A, are based on a 0 to 100 scale where 0 is no effect and 100 is complete control. A dash (-) response means no test result.

[2] = test system: blackgrass (Alopecurus myosuroides); experiment: Test A postemergence, blackgrass; conditions: 0 to 100 scale
Excerpt: as §1

kochia (Kochia scoparia) [3] = experiment: Test A postemergence, kochia; conditions: 0 to 100 scale
Excerpt: as §1

[4] = test system: barnyardgrass (Echinochloa crus-galli); experiment: Test B flooded paddy test, barnyardgrass; conditions: Flood, 250 g ai/ha; scale of 0 to 100 where 0 is no effect and 100 is complete control; 13 to 15 d
Description: (§2) Plant species in the flooded paddy test selected from rice (Oryza sativa), sedge, umbrella (small-flower umbrella sedge, Cyperus difformis), ducksalad (Heteranthera limosa), and barnyardgrass (Echinochloa crus-galli) were grown to the 2-leaf stage for testing. At time of treatment, test pots were flooded to 3 cm above the soil surface, treated by application of test compounds directly to the paddy water, and then maintained at that water depth for the duration of the test. Treated plants and controls were maintained in a greenhouse for 13 to 15 d, after which time all species were compared to controls and visually evaluated. Plant response ratings, summarized in Table B, are based on a scale of 0 to 100 where 0 is no effect and 100 is complete control. A dash (-) response means no test result.

[5] = test system: pigweed (Amaranthus retroflexus); experiment: Test A preemergence, pigweed; conditions: 0 to 100 scale
Excerpt: as §1

[6] = test system: ryegrass, It. (Italian ryegrass, Lolium multiflorum); experiment: Test A postemergence, ryegrass, It.; conditions: 0 to 100 scale
Excerpt: as §1

rice (Oryza sativa) = experiment: Test B flooded paddy test, rice; conditions: Flood, 250 g ai/ha; scale of 0 to 100 where 0 is no effect and 100 is complete control; 13 to 15 d
Description: as §2

[7] = test system: galium (catchweed bedstraw, Galium aparine); experiment: Test A postemergence, galium; conditions: 0 to 100 scale
Excerpt: as §1

[8] = test system: wheat (Triticum aestivum); experiment: Test A postemergence, wheat; conditions: 0 to 100 scale
Excerpt: as §1

[9] = test system: foxtail, giant (giant foxtail, Setaria faberii); experiment: Test A postemergence, foxtail, giant; conditions: 0 to 100 scale
Excerpt: as §1

corn (Zea mays) = experiment: Test A postemergence, corn; conditions: 0 to 100 scale
Excerpt: as §1

[10] = test system: ryegrass, It. (Italian ryegrass, Lolium multiflorum); experiment: Test A preemergence, ryegrass, It.; conditions: 0 to 100 scale
Excerpt: as §1

[11] = test system: ragweed (common ragweed, Ambrosia elatior); experiment: Test A preemergence, ragweed; conditions: 0 to 100 scale
Excerpt: as §1

[12] = test system: ducksalad (Heteranthera limosa); experiment: Test B flooded paddy test, ducksalad; conditions: Flood, 250 g ai/ha; scale of 0 to 100 where 0 is no effect and 100 is complete control; 13 to 15 d
Description: as §2

[13] = test system: sedge, umbrella (small-flower umbrella sedge, Cyperus difformis); experiment: Test B flooded paddy test, sedge, umbrella; conditions: Flood, 250 g ai/ha; scale of 0 to 100 where 0 is no effect and 100 is complete control; 13 to 15 d
Description: as §2

[14] = test system: barnyardgrass (Echinochloa crus-galli); experiment: Test A preemergence, barnyardgrass; conditions: 0 to 100 scale
Excerpt: as §1

[15] = test system: ragweed (common ragweed, Ambrosia elatior); experiment: Test A postemergence, ragweed; conditions: 0 to 100 scale
Excerpt: as §1

[16] = test system: pigweed (Amaranthus retroflexus); experiment: Test A postemergence, pigweed; conditions: 0 to 100 scale
Excerpt: as §1

[17] = test system: foxtail, giant (giant foxtail, Setaria faberii); experiment: Test A preemergence, foxtail, giant; conditions: 0 to 100 scale
Excerpt: as §1

[18] = test system: barnyardgrass (Echinochloa crus-galli); experiment: Test A postemergence, barnyardgrass; conditions: 0 to 100 scale
Excerpt: as §1

O=C1NCC(C#Cc2cccc(Cl)c2)C1C(=O)Nc1ccccc1F (centres unmarked) [Compound 29]
Plant response rating, Kochia (kochia (Kochia scoparia) [1]; 125 g ai/ha): 0 | Plant response rating, Kochia (kochia (Kochia scoparia) [1]; 500 g ai/ha): 0 | Plant response rating, Blackgrass ([2]; 125 g ai/ha): 0 | Plant response rating, Blackgrass ([2]; 500 g ai/ha): 0 | Plant response rating, Kochia (kochia (Kochia scoparia) [3]; 125 g ai/ha): 0 | Plant response rating, Kochia (kochia (Kochia scoparia) [3]; 500 g ai/ha): 0 | Plant response rating, Barnyardgrass [4]: 0 | Plant response rating, Pigweed ([5]; 125 g ai/ha): 0 | Plant response rating, Pigweed ([5]; 500 g ai/ha): 0 | Plant response rating, Ryegrass, It. ([6]; 125 g ai/ha): 0 | Plant response rating, Ryegrass, It. ([6]; 500 g ai/ha): 0 | Plant response rating, Rice (rice (Oryza sativa)): 0 | Plant response rating, Galium ([7]; 125 g ai/ha): 0 | Plant response rating, Galium ([7]; 500 g ai/ha): 0 | Plant response rating, Wheat ([8]; 125 g ai/ha): 0 | Plant response rating, Wheat ([8]; 500 g ai/ha): 0 | Plant response rating, Foxtail, Giant ([9]; 125 g ai/ha): 0 | Plant response rating, Foxtail, Giant ([9]; 500 g ai/ha): 60 | Plant response rating, Corn (corn (Zea mays); 125 g ai/ha): 0 | Plant response rating, Corn (corn (Zea mays); 500 g ai/ha): 0 | Plant response rating, Ryegrass, It. ([10]; 125 g ai/ha): 0 | Plant response rating, Ryegrass, It. ([10]; 500 g ai/ha): 0 | Plant response rating, Ragweed ([11]; 125 g ai/ha): 0 | Plant response rating, Ragweed ([11]; 500 g ai/ha): 0 | Plant response rating, Ducksalad [12]: 75 | Plant response rating, Sedge, Umbrella [13]: 0 | Plant response rating, Barnyardgrass ([14]; 125 g ai/ha): 30 | Plant response rating, Barnyardgrass ([14]; 500 g ai/ha): 70 | Plant response rating, Ragweed ([15]; 125 g ai/ha): 0 | Plant response rating, Ragweed ([15]; 500 g ai/ha): 0 | Plant response rating, Pigweed ([16]; 125 g ai/ha): 0 | Plant response rating, Pigweed ([16]; 500 g ai/ha): 0 | Plant response rating, Foxtail, Giant ([17]; 125 g ai/ha): 0 | Plant response rating, Foxtail, Giant ([17]; 500 g ai/ha): 60 | Plant response rating, Barnyardgrass ([18]; 125 g ai/ha): 0 | Plant response rating, Barnyardgrass ([18]; 500 g ai/ha): 60

O=C1NCC(/C=C/c2cccc(F)c2)C1C(=O)Nc1ccccc1F (centres unmarked) [Compound 24]
Plant response rating, Kochia (kochia (Kochia scoparia) [1]; 125 g ai/ha): 0 | Plant response rating, Kochia (kochia (Kochia scoparia) [1]; 500 g ai/ha): 20 | Plant response rating, Blackgrass ([2]; 125 g ai/ha): 0 | Plant response rating, Blackgrass ([2]; 500 g ai/ha): 0 | Plant response rating, Barnyardgrass [4]: 70 | Plant response rating, Pigweed ([5]; 125 g ai/ha): 0 | Plant response rating, Pigweed ([5]; 500 g ai/ha): 0 | Plant response rating, Ryegrass, It. ([6]; 125 g ai/ha): 0 | Plant response rating, Ryegrass, It. ([6]; 500 g ai/ha): 0 | Plant response rating, Rice (rice (Oryza sativa)): 0 | Plant response rating, Galium ([7]; 125 g ai/ha): 0 | Plant response rating, Galium ([7]; 500 g ai/ha): 0 | Plant response rating, Wheat ([8]; 125 g ai/ha): 0 | Plant response rating, Wheat ([8]; 500 g ai/ha): 0 | Plant response rating, Foxtail, Giant ([9]; 125 g ai/ha): 30 | Plant response rating, Foxtail, Giant ([9]; 500 g ai/ha): 80 | Plant response rating, Corn (corn (Zea mays); 125 g ai/ha): 0 | Plant response rating, Corn (corn (Zea mays); 500 g ai/ha): 0 | Plant response rating, Ryegrass, It. ([10]; 125 g ai/ha): 0 | Plant response rating, Ryegrass, It. ([10]; 500 g ai/ha): 0 | Plant response rating, Ragweed ([11]; 125 g ai/ha): 0 | Plant response rating, Ragweed ([11]; 500 g ai/ha): 30 | Plant response rating, Ducksalad [12]: 90 | Plant response rating, Sedge, Umbrella [13]: 0 | Plant response rating, Barnyardgrass ([14]; 125 g ai/ha): 30 | Plant response rating, Barnyardgrass ([14]; 500 g ai/ha): 70 | Plant response rating, Ragweed ([15]; 125 g ai/ha): 0 | Plant response rating, Ragweed ([15]; 500 g ai/ha): 0 | Plant response rating, Pigweed ([16]; 125 g ai/ha): 0 | Plant response rating, Pigweed ([16]; 500 g ai/ha): 0 | Plant response rating, Foxtail, Giant ([17]; 125 g ai/ha): 60 | Plant response rating, Foxtail, Giant ([17]; 500 g ai/ha): 90 | Plant response rating, Barnyardgrass ([18]; 125 g ai/ha): 0 | Plant response rating, Barnyardgrass ([18]; 500 g ai/ha): 70

O=C1NCC(/C=C/c2ccc(F)cc2)C1C(=O)Nc1ccccc1F (centres unmarked) [Compound 27]
Plant response rating, Kochia (kochia (Kochia scoparia) [1]; 125 g ai/ha): 0 | Plant response rating, Kochia (kochia (Kochia scoparia) [1]; 500 g ai/ha): 40 | Plant response rating, Blackgrass ([2]; 125 g ai/ha): 0 | Plant response rating, Blackgrass ([2]; 500 g ai/ha): 0 | Plant response rating, Barnyardgrass [4]: 0 | Plant response rating, Pigweed ([5]; 125 g ai/ha): 0 | Plant response rating, Pigweed ([5]; 500 g ai/ha): 0 | Plant response rating, Ryegrass, It. ([6]; 125 g ai/ha): 0 | Plant response rating, Ryegrass, It. ([6]; 500 g ai/ha): 0 | Plant response rating, Rice (rice (Oryza sativa)): 0 | Plant response rating, Galium ([7]; 125 g ai/ha): 0 | Plant response rating, Galium ([7]; 500 g ai/ha): 0 | Plant response rating, Wheat ([8]; 125 g ai/ha): 0 | Plant response rating, Wheat ([8]; 500 g ai/ha): 0 | Plant response rating, Foxtail, Giant ([9]; 125 g ai/ha): 0 | Plant response rating, Foxtail, Giant ([9]; 500 g ai/ha): 70 | Plant response rating, Corn (corn (Zea mays); 125 g ai/ha): 0 | Plant response rating, Corn (corn (Zea mays); 500 g ai/ha): 0 | Plant response rating, Ryegrass, It. ([10]; 125 g ai/ha): 0 | Plant response rating, Ryegrass, It. ([10]; 500 g ai/ha): 20 | Plant response rating, Ragweed ([11]; 125 g ai/ha): 0 | Plant response rating, Ragweed ([11]; 500 g ai/ha): 30 | Plant response rating, Ducksalad [12]: 80 | Plant response rating, Sedge, Umbrella [13]: 0 | Plant response rating, Barnyardgrass ([14]; 125 g ai/ha): 0 | Plant response rating, Barnyardgrass ([14]; 500 g ai/ha): 50 | Plant response rating, Ragweed ([15]; 125 g ai/ha): 0 | Plant response rating, Ragweed ([15]; 500 g ai/ha): 0 | Plant response rating, Pigweed ([16]; 125 g ai/ha): 0 | Plant response rating, Pigweed ([16]; 500 g ai/ha): 20 | Plant response rating, Foxtail, Giant ([17]; 125 g ai/ha): 0 | Plant response rating, Foxtail, Giant ([17]; 500 g ai/ha): 60 | Plant response rating, Barnyardgrass ([18]; 125 g ai/ha): 0 | Plant response rating, Barnyardgrass ([18]; 500 g ai/ha): 60
